Results as given in paper PMC7884382, “A Phase 1 study of RO6870810, a novel bromodomain and extra-terminal protein inhibitor, in patients with NUT carcinoma, other solid tumours, or diffuse large B-cell lymphoma” (British Journal of Cancer, 2020).
Several values for one entry are separate records, joined by “and”; a condition that tells them apart may be missing. Identical values can stand only once. Marks after values point to notes of the source that are not given here.

Columns and labels:
Format in all cases: in vivo, human
[1] = tested on: CD11b expression in monocytes; experiment: Pharmacodynamics: CD11b expression by flow cytometry
Procedure: For pharmacodynamic assessments, venous blood samples were collected and CD11b expression in monocytes was assessed as a surrogate marker of target engagement using flow cytometry before and after the first administration of RO6870810. Samples were obtained on cycle 1, day 1 (pre-dose and 2, 4 and 8 h post dose) and on cycle 1, day 15 (pre-dose and 2- and 4-h post dose). […] Formal hypothesis testing was not performed for this Phase 1 study. The sample size was based on a standard 3 + 3 dose-escalation design and was considered sufficient to evaluate the safety and clinical activity of RO6870810. AEs were coded using the current Medical Dictionary for Regulatory Activities, and safety and clinical efficacy were summarised using descriptive statistics. The 95% CI for the objective response rate was calculated using Wilson’s score method with continuity correction, and PFS was analysed using the Kaplan–Meier method. For the PK analyses, key exposure parameters such as maximum plasma concentration (Cmax) and area under the curve were summarised with descriptive statistics, and dose-exposure relationships were plotted graphically. Percentage changes in CD11b from baseline by flow cytometry were summarised with descriptive statistics and plotted over time. The relationship between percentage change from baseline in CD11b (average of three measurements taken pre-dose, at 2 h and at 4 h) on day 15 and the RO6870810 dose was plotted. To investigate the relationship between individual percentage changes in CD11b from baseline and RO6870810 concentration on day 15, the nonparametric regression LOESS curve fitting (locally weighted scatterplot smoothing) method was applied.

[2] = tested on: diffuse large B-cell lymphoma (DLBCL); experiment: Clinical activity in DLBCL sub-study (Lugano classification)
Description: Evaluation of the anticancer activity of RO6870810 was a secondary objective, as measured by time to first and best response, overall response rate, progression-free survival (PFS), duration of response and overall survival. […] Scans could also be obtained after one cycle following a study amendment. […] Responders were defined as patients who achieved a confirmed CR or partial response (PR). PFS was defined as the time from the date of first study drug administration to the first date of objectively determined progressive disease (PD) or death from any cause. PFS was censored at the date of the most recent objective progression-free observation for patients who were still alive at the time of analysis and without evidence of tumour progression. For patients who received subsequent anticancer therapy prior to objective disease progression or death, PFS was censored at the date of the last objective progression-free observation prior to the date of subsequent therapy.

solid tumours = experiment: Clinical activity in other solid tumours (RECIST v1.1)
Description: Evaluation of the anticancer activity of RO6870810 was a secondary objective, as measured by time to first and best response, overall response rate, progression-free survival (PFS), duration of response and overall survival. […] Responders were defined as patients who achieved a confirmed CR or partial response (PR). PFS was defined as the time from the date of first study drug administration to the first date of objectively determined progressive disease (PD) or death from any cause. PFS was censored at the date of the most recent objective progression-free observation for patients who were still alive at the time of analysis and without evidence of tumour progression. For patients who received subsequent anticancer therapy prior to objective disease progression or death, PFS was censored at the date of the last objective progression-free observation prior to the date of subsequent therapy.

[3] = DLBCL, % of n = 13 with non-missing best response
[4] = Solid tumours, % of n = 42 with non-missing best response
[5] = solid tumours, of 42 patients with non-missing data

## Cc1sc2c(c1C)C(c1ccc(Cl)cc1)=N[C@@H](CC(=O)NCCCN1CCN(C)CC1)c1nnc(C)n1-2 [RO6870810]
[1]; across dose levels, with the exception of the 0.03-mg/kg dose
  Change in CD11b during the dosing period: sustained decreases in CD11b
[1]; at ≥0.2 mg/kg, cycle 1, day 15
  Largest decreases in CD11b: ≥ 50%
[1]; cycle 1, day 15
  Doses at which mean decreases in CD11b occurred: > 0.06 mg/kg
[1]; cycle 1, day 15, LOESS curve
  RO6870810 concentration reaching a 50% reduction in CD11b: > 150 ng/mL
[2]; DLBCL (n = 19)
  Complete response: 0 n (%)
  Median time to first response (min-max): 45.0 (41–49) days
  Missing response (no postbaseline tumour assessment): 6 n (%)
  Unknown response: 0 n (%)
[2]; DLBCL, 19 patients
  Median PFS: 29 days
  PFS range: 18 to 708 days
[2]; DLBCL, n = 2 of 19, 95% CI, 2–35%
  Objective response rate: 11% and 10.5%
[2]; [3]
  Partial response: 2 (15.4)^d n (%)
  Progressive disease: 7 (53.8)^d n (%)
  Stable disease: 4 (30.8)^d n (%)
[2]; DLBCL, n = 2 of 13 with non-missing data
  PR as best response: 15%
[2]; DLBCL, n = 7 of 13 with non-missing data
  PD as best response: 54%
[2]; person, GCB DLBCL, 0.45 mg/kg 21 of 28 days, after cycle 1
  Decrease in target tumour volume (PR): 55%
[2]; person, GCB DLBCL, end of cycle 2 (PD by objective criteria)
  Reduction from baseline in target tumour volume: 64%
Solid tumours; Solid tumours (n = 47)
  Complete response: 0 n (%)
  Median time to first response (min-max): 56.0 days
  Missing response (no postbaseline tumour assessment): 5 n (%)
  Unknown response: 1 (2.4)^b n (%)
Solid tumours; [4]
  Partial response: 1 (2.4)^c n (%)
  Progressive disease: 15 (35.7)^c n (%)
  Stable disease: 25 (59.5)^c n (%)
Solid tumours; adenocarcinoma pancreas
  Patients with PD as best response: 1 n
Solid tumours; breast cancer
  Patients with PD as best response: 2 n
  Patients with SD as best response: 2 n
Solid tumours; colorectal cancer
  Patients with PD as best response: 4 n
  Patients with SD as best response: 5 n
  Patients with an unknown response: a patient
Solid tumours; endometrial cancer
  Patients with PD as best response: 1 n
Solid tumours; fallopian tube cancer
  Patients with PD as best response: 1 n
Solid tumours; gastrointestinal stromal tumour
  Patients with PD as best response: 1 n
Solid tumours; hepatic cancer
  Patients with SD as best response: 1 n
Solid tumours; non-small cell lung cancer
  Patients with PD as best response: 1 n
  Patients with SD as best response: 1 n
Solid tumours; oesophageal carcinoma
  Patients with SD as best response: 1 n
Solid tumours; ovarian cancer
  Patients with PD as best response: 1 n
  Patients with SD as best response: 2 n
Solid tumours; pancreatic cancer
  Patients with PD as best response: 1 n
  Patients with SD as best response: 1 n
Solid tumours; patient with acinic cell carcinoma of the parotid gland
  Tumour reduction at nadir: 46.8%
Solid tumours; patient with acinic cell carcinoma of the parotid gland, after two cycles, at 57 days
  Tumour reduction at PR: > 40%
Solid tumours; poorly differentiated carcinoma of unknown origin
  Patients with PD as best response: 1 n
Solid tumours; prostate cancer
  Patients with SD as best response: 7 n
Solid tumours; salivary gland cancer
  Patients with PR as best response: a patient
  Patients with SD as best response: 4 n
Solid tumours; solid tumours, 47 patients
  Median PFS: 90 days
  PFS range: 9 to 315 days
Solid tumours; solid tumours, n = 1 of 47, 95% CI, 0%–13%
  Objective response rate: 2%
Solid tumours; [5]
  PD as best response: 36%
  PR as best response: 2%
Solid tumours; squamous cell carcinoma
  Patients with PD as best response: 1 n
Solid tumours; uterine cancer
  Patients with SD as best response: 1 n
